The numbers were not newly measured in patent US20100003364A1, “REDUCED-HANGOVER ALCOHOLIC BEVERAGE COMPRISING TURMERIC” (priority 2006, published 2010), which cites them from elsewhere.

For this data set the following is noted: biological activities listed for compounds from Curcuma longa L.

On to `CC(C)=CC(=O)CC(C)c1ccc(C)cc1` (stereo not shown) [Ar-turmerone], for which the Activity entry is given as “snakebite”. In the case of `O=C(C=Cc1ccc(O)cc1)CC(=O)C=Cc1ccc(O)cc1` [Bisdemethoxy curcumin], the Activity result was “antioxidant”. `COc1cc(/C=C/C(=O)CC(=O)/C=C/c2ccc([O-])c(OC)c2)ccc1[O-].[Na+].[Na+]` [Sodium curcuminate]: the Activity result was “anti-inflammatory”. Take Methylcurcumin: the Activity entry is recorded as “L. amazonensis”.
